Data from the supplement of paper PMC11451515.

System: SEM cells
Assay: cell viability relative to DMSO control; higher = less cytotoxic
Settings: 48 h
Outline: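 Library compounds in DMSO were pin-dosed in an 11-point threefold series (47 μM to 0.79 nM) onto leukemia cells in 1536-well plates (5 μl). Plates held 500 cells/well of NOMO1 or SEM or 1000 cells/well of P12-Ichikawa, each adapted for at least four passages in each medium. Luminescence was read with CellTiter-Glo One after 48 h at 37°C. Viability means the per-plate percentage relative to DMSO wells, using cell-free wells as background.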

[1] = HPLM + 10% dialyzed FBS, 0.000781 µM
[2] = HPLM + 10% dialyzed FBS, 0.00234 µM
[3] = HPLM + 10% dialyzed FBS, 0.00702 µM
[4] = HPLM + 10% dialyzed FBS, 0.0211 µM
[5] = HPLM + 10% dialyzed FBS, 0.0632 µM
[6] = HPLM + 10% dialyzed FBS, 0.19 µM
[7] = HPLM + 10% dialyzed FBS, 0.569 µM
[8] = HPLM + 10% dialyzed FBS, 1.71 µM
[9] = HPLM + 10% dialyzed FBS, 5.12 µM
[10] = HPLM + 10% dialyzed FBS, 15.4 µM
[11] = HPLM + 10% dialyzed FBS, 46.1 µM
[12] = RPMI 5 mM glucose + 10% FBS, 0.000781 µM
[13] = RPMI 5 mM glucose + 10% FBS, 0.00234 µM
[14] = RPMI 5 mM glucose + 10% FBS, 0.00702 µM
[15] = RPMI 5 mM glucose + 10% FBS, 0.0211 µM
[16] = RPMI 5 mM glucose + 10% FBS, 0.0632 µM
[17] = RPMI 5 mM glucose + 10% FBS, 0.19 µM
[18] = RPMI 5 mM glucose + 10% FBS, 0.569 µM
[19] = RPMI 5 mM glucose + 10% FBS, 1.71 µM
[20] = RPMI 5 mM glucose + 10% FBS, 5.12 µM
[21] = RPMI 5 mM glucose + 10% FBS, 15.4 µM
[22] = RPMI 5 mM glucose + 10% FBS, 46.1 µM
[23] = RPMI 5 mM glucose + 10% dialyzed FBS, 0.000781 µM
[24] = RPMI 5 mM glucose + 10% dialyzed FBS, 0.00234 µM
[25] = RPMI 5 mM glucose + 10% dialyzed FBS, 0.00702 µM
[26] = RPMI 5 mM glucose + 10% dialyzed FBS, 0.0211 µM
[27] = RPMI 5 mM glucose + 10% dialyzed FBS, 0.0632 µM
[28] = RPMI 5 mM glucose + 10% dialyzed FBS, 0.19 µM
[29] = RPMI 5 mM glucose + 10% dialyzed FBS, 0.569 µM
[30] = RPMI 5 mM glucose + 10% dialyzed FBS, 1.71 µM
[31] = RPMI 5 mM glucose + 10% dialyzed FBS, 5.12 µM
[32] = RPMI 5 mM glucose + 10% dialyzed FBS, 15.4 µM
[33] = RPMI 5 mM glucose + 10% dialyzed FBS, 46.1 µM

Row | SMILES | cell viability [1] | cell viability [2] | cell viability [3] | cell viability [4] | cell viability [5] | cell viability [6] | cell viability [7] | cell viability [8] | cell viability [9] | cell viability [10] | cell viability [11] | cell viability [12] | cell viability [13] | cell viability [14] | cell viability [15] | cell viability [16] | cell viability [17] | cell viability [18] | cell viability [19] | cell viability [20] | cell viability [21] | cell viability [22] | cell viability [23] | cell viability [24] | cell viability [25] | cell viability [26] | cell viability [27] | cell viability [28] | cell viability [29] | cell viability [30] | cell viability [31] | cell viability [32] | cell viability [33]
1 | COc1cc2c(N3CCN(C(=O)Nc4ccc(OC(C)C)cc4)CC3)ncnc2cc1OCCCN1CCCCC1 | 66.4% | 73.3% | 82.7% | 93.8% | 56.3% | 32.1% | 41.1% | 33.8% | 38% | 13.8% | 15.1% | 89.5% | 104% | 116% | 98.1% | 73% | 66.8% | 51.3% | 39.1% | 46.6% | 16.2% | 22.6% | 82.2% | 85.2% | 83.3% | 77.8% | 65% | 35.5% | 37.3% | 26.1% | 27.6% | 14.1% | 12.8%
2 | Nc1nc(-c2nn(Cc3ccccc3F)c3ncccc23)nc(N)c1N1CCOCC1 | 88.9% | 87.4% | 96% | 96.1% | 101% | 110% | 99.3% | 116% | 104% | 93.5% | 89.8% | 98% | 84.6% | 103% | 115% | 106% | 111% | 111% | 121% | 94.2% | 89.6% | 80.6% | 93.8% | 85.6% | 113% | 99.9% | 104% | 85.2% | 104% | 126% | 101% | 96.2% | 90.9%
3 | COC1=CC=C2Nc3cc(Cl)ccc3C(N=C3C=C(CN4CCCC4)C(=O)C(CN4CCCC4)=C3)=C2N1 | 90.6% | 113% | 103% | 105% | 107% | 101% | 106% | 111% | 117% | 61.5% | 7.01% | 107% | 112% | 120% | 110% | 115% | 110% | 121% | 113% | 121% | 79% | 50.3% | 83.1% | 108% | 108% | 102% | 102% | 115% | 115% | 80.4% | 105% | 56.4% | 24%
4 | Clc1ccc(C2(c3ccc(-c4cn[nH]c4)cc3)CCNCC2)cc1 | 79.1% | 97.2% | 83.5% | 106% | 88.8% | 96.4% | 73.7% | 87.4% | 77.7% | 40.1% | 39.9% | 95.1% | 99% | 110% | 108% | 96.1% | 100% | 98.7% | 102% | 95.9% | 56.7% | 61% | 88.3% | 91.9% | 90.7% | 92.7% | 80.5% | 90.7% | 71.8% | 89.5% | 80.1% | 57.1% | 46.5%
5 | CC(C)C[C@H](CN)CC(=O)O | 110% | 116% | 105% | 111% | 97.6% | 98.8% | 115% | 102% | 119% | 37.9% | 93.9% | 102% | 102% | 98.7% | 105% | 93.9% | 88.7% | 104% | 113% | 103% | 41.2% | 92.1% | 101% | 105% | 107% | 103% | 110% | 102% | 113% | 109% | 97.1% | 38.8% | 110%
6 | O=C1c2c(O)cccc2[C@H]([C@@H]2O[C@H](CO)[C@@H](O)[C@H](O)[C@H]2O)c2cc(CO)cc(O)c21 | 99.7% | 39% | 110% | 105% | 112% | 111% | 116% | 108% | 112% | 116% | 108% | 89.4% | 30.7% | 92.8% | 84% | 98.2% | 96.3% | 106% | 91.3% | 93% | 93.5% | 106% | 94% | 27.4% | 92.4% | 96.7% | 102% | 101% | 114% | 109% | 112% | 90.1% | 119%
7 | COc1nc(-c2ccc3c(c2)OCO3)n(-c2ccc(NC(=O)CSc3ccccc3)cc2)n1 | 118% | 97.1% | 106% | 112% | 114% | 103% | 117% | 98% | 110% | 98.5% | 98.9% | 113% | 104% | 117% | 102% | 107% | 108% | 94.2% | 95.5% | 95.8% | 101% | 86.7% | 96.4% | 108% | 122% | 119% | 119% | 102% | 89% | 105% | 118% | 99.7% | 82.9%
